Measurements reported in patent publication US20210121482A1, “WITHANOLIDES FOR THE TREATMENT OF CACHEXIA” (University of Louisville Research Foundation, Inc., priority 2019, published 2021).

Key:
[1] = test system: poly-ubiquitinated proteins; experiment: Immunoblot for poly-ubiquitinated proteins; type: in vivo, mice; settings: WFA treatment, 2 and 4 mg/kg
Method: Protein Extraction and Western Blotting: Quadriceps femoris (QF) samples were homogenized in chilled RIPA buffer (Sigma) supplemented with a Complete Mini Protease Inhibitor tablet (Roche Molecular Biochemicals, Indianapolis, Ind.). Tissue lysates were centrifuged at 10,000 RPM and the supernatants were collected. Protein concentration for each sample was determined using the Bradford reagent method (Bio-Rad), according to manufacturer's instructions. Protein lysates (50 μg) were separated on 10% SDS-PAGE gels at 100 volts for 2 h. The proteins were transferred to nitrocellulose membranes at 100 volts for 90 minutes. The membranes were blocked with 5% non-fat milk in Tris Buffered Saline supplemented with Tween-20 (0.5%; TBS-T) for 30-60 minutes. The membranes were then washed 3 times with TBS-T for 5 minutes. The membranes were then incubated with primary antibody at 4° C. overnight. The membranes were washed 3 times with TBS-T for 5 minutes each followed by incubation in TBS-T containing horseradish peroxidase conjugated secondary antibody (1:2000 dilution) for 1 h. The membranes were rinsed 3 times with TBS-T for 5 minutes each. Visualization of immunoreactive bands was enhanced using chemiluminescence reagents (Sigma). […]

[2] = test system: TA muscle myofibers (MyHC I, IIa, IIb); experiment: Skeletal muscle fiber-type immunostaining; type: in vivo, mice
Method: Skeletal Muscle Fiber-type Immunostaining: To determine the composition of different types and gross composition of skeletal muscle fibers, 10 μm thick transverse sections were made from TA muscles, a hydrophobic boundary was drawn around the section, and then blocked with 5% goat serum and 2% bovine serum albumin (BSA) in PBS for 30 minutes. The sections were then incubated for one hour with monoclonal antibodies against myosin heavy chain (MyHC) isoforms type I, IIa, and IIb using clone BA-D5, […], and BF-F3, respectively (Developmental Studies Hybridoma Bank, Iowa City, Iowa, USA). The following secondary antibodies were then used for detection after 1-2 hours of incubation period: anti-Mouse IgG2b (γ2b) CF™ 350 antibody produced in goat, anti-Mouse IgG1 (yl) CF™ 568 antibody produced in goat, and Alexa Fluor-488 goat anti-mouse IgM. Fluorescence images were captured with a Nikon TiE 3000 inverted microscope, the single-color channels were merged, and percentage of each fiber-type in whole muscle section was recorded. Nonspecific background staining was performed using the above protocol but omitting the inclusion of the primary antibodies. Antibodies BA-D5, SC-71, and BF-F3 were deposited to the DSHB by Schiaffino, S. (DSHB Hybridoma Product BA-D5, SC-71, and BF-F3).

[3] = Body and organ weight, A2780 xenograft mice (Example 1); settings: for BW Week 2 / BW Week 3 / BW Week 1 / Initial BW / Kidney weight normalized / Liver weight normalized / Spleen weight normalized: tumor-bearing; for Initial BW: baseline, before treatment
[4] = test system: inflammatory cytokines and NLRP3 inflammasome markers in tumor samples; experiment: qPCR of xenografted tumor samples; type: in vivo, Homo sapiens
Method: Total RNA Extraction and qPCR: Isolation of total RNA from xenografted tumor samples was performed using an RNeasy® Mini Kit (Qiagen Catalog #74104) according to the manufacturer's instructions. Isolation of total RNA from skeletal muscle was performed using an RNeasy® Fibrous Tissue Mini Kit (Qiagen Catalog #74704) according to the manufacturer's instructions. First strand cDNA was synthesized using 1 μg of purified RNA and a commercially available kit (iScript™ cDNA synthesis, Bio-Rad Catalog #170-8891), Quantification of mRNA expression was performed similar to as previously described (Hindi and Kumar, 2016) using the SYBR Green dye method on a StepOnePlus™ system (Applied Biosystems) using gene-specific primers, as shown in Table 1.

[5] = Body composition by DEXA scan; type: in vivo, mice; settings: 2 and 6 mg/kg
Method: Analysis of Body Composition: Body fat and lean mass composition, as well as the bone mineral content and density, excluding head region of interest (ROI), were determined by dual-energy X-ray absorptiometry (DEXA) scan using a mouse densitometer (PIXImus 2; Lunar, Madison, Wis., USA). According to the manufacturer's guidelines to calibrate and validate the performance of the apparatus, a “mouse phantom” provided with the machine was scanned before scanning the first mouse. Animals were […] immediately before assessment by DEXA scan. The mouse was then transferred to the disposable PIXImus measuring tray in the prone position with their head in a loosely fitting nose cone to aid positioning. Upon completion of the DEXA scan, approximately five minutes, the mouse was placed on ice to preserve tissue prior to collection.

[6] = WFA 2 mg/kg IP every three days
[7] = WFA 6 mg/kg IP every three days
[8] = 2 and 6 mg/kg, vs vehicle treated group

SMILES: CC1=C(CO)C(=O)O[C@@H]([C@@H](C)[C@H]2CC[C@H]3[C@@H]4C[C@H]5O[C@]56[C@@H](O)C=CC(=O)[C@]6(C)[C@H]4CC[C@]23C)C1 [WFA, (4β,5β,6β,22R)-4,27-Dihydroxy-5,6:22,26-diepoxyergosta-2,24-diene-1,26-dione]
- pan-ubiquitination of proteins (immunoblot) [1]: reduced in response to WFA treatment
- proportion of Type IIb myofibers in TA muscle ([2]; 2 and 6 mg/kg, vs control and vehicle treated groups): significantly reduced in the WFA treated groups in a dose-dependent manner
- percentage of Type IIa myofibers in TA muscle ([2]; 2 and 6 mg/kg, vs vehicle treated and control groups): significant increase in Type IIa myofibers
- percentage of Type I myofibers in TA muscle ([2]; all groups): no significant differences were found
- percentage of Type IIx myofibers in TA muscle ([2]; all groups): no significant differences were elucidated upon post hoc analysis
- body weight fold change ([3]; 2 and 6 mg/kg, at termination of study, all groups compared): No statistically significant difference between the groups
- BW Week 2 [3, 6]: 20.43 ± 2.43 g
- BW Week 3 [3, 6]: 22.68 ± 2.53 g
- BW Week 1 ([3]; WFA 2 mg/kg group): 19.98 ± 2.33 g
- Initial BW ([3]; WFA 2 mg/kg group): 19.14 ± 1.50 g
- Kidney weight normalized ([3]; WFA 2 mg/kg): 4.95 ± 0.79 mg/g
- Liver weight normalized ([3]; WFA 2 mg/kg): 47.16 ± 15.88 mg/g
- Spleen weight normalized ([3]; WFA 2 mg/kg): 2.20 ± 1.74 mg/g
- BW Week 2 [3, 7]: 21.37 ± 1.32 g
- BW Week 3 [3, 7]: 23.57 ± 1.23 g
- BW Week 1 ([3]; WFA 6 mg/kg group): 20.70 ± 1.35 g
- Initial BW ([3]; WFA 6 mg/kg group): 19.60 ± 0.76 g
- Kidney weight normalized ([3]; WFA 6 mg/kg): 5.45 ± 0.49 mg/g
- Liver weight normalized ([3]; WFA 6 mg/kg): 41.18 ± 3.60 mg/g
- Spleen weight normalized ([3]; WFA 6 mg/kg): 2.78 ± 1.45 mg/g
- relative transcript levels of TNFα, IFNγ, IL-6, IL-8 in tumor ([4]; 2 mg/kg, vs vehicle treated group): significantly reduced
- relative transcript levels of HO-1 in tumor ([4]; 2 mg/kg, vs vehicle treated group (p=0.06)): trended towards an increase
- relative gene expression of IL-18 in tumor ([4]; 2 mg/kg, vs vehicle treated group (p=0.07)): trend towards reduction
- relative mRNA expression of TNFα in tumor ([4]; 6 mg/kg, vs vehicle treated group): significantly reduced
- relative transcript levels of HO-1 in tumor ([4]; 6 mg/kg, vs vehicle treated group (p=0.03)): significantly increased
- relative expression of IL-6 and IL-8 genes in tumor ([4]; 6 mg/kg, vs vehicle treated group (p=0.07, p=0.09)): trend towards reduction
- relative gene expression of IL-18 in tumor ([4]; 6 mg/kg, vs vehicle treated group (p=0.21)): did not approach the level of statistical significance
- reduction in NLRP3 mRNA levels in tumor [4, 8]: not found to be significant
- relative transcript levels of CASP1 in tumor [4, 8]: dose-dependent decrease
- relative transcript levels of IL-1β in tumor [4, 8]: significantly reduced in both WFA treated groups
- bone mineral density or content [5]: No significant differences
- proportion of lean tissue to body weight ([5]; all tumor-bearing groups vs control): significant increase in the proportion of lean tissue to body weight
- proportion of adipose tissue to whole body weight ([5]; vs vehicle treated group): attenuation of adipose tissue
